Assay results taken from patent publication US20240156852A1, “CARBON NANOPARTICLE COMPOSITIONS AND METHODS FOR DELIVERING THERAPEUTICS TO SPECIFIC TARGET SITES” (SINON NANO SCIENCES INC., priority 2021, published 2024).

Conditions: male, Wistar, rat, in vivo, po
Procedure: Wistar rats (male, 200-220 g) were obtained from the CPCSEA registered animal vendor. Animals were maintained at temperature of 23±2° C., relative humidity of 30% to 70%, and a 12 h dark-light cycle. All of the animals had free access to water and rodent chow at all times, and all of the experimental animals were fed under the above conditions throughout the acclimatization period. Wistar rats (n=1, Male) were randomly taken for each of the two groups. […] All the rats were fasted for 12 hr before administration. The blood collection was done from retro-orbital plexus using an anticoagulant-coated capillary tube at 0 (pre-dose), 0.25, 0.5, 1, 2, 4, 6, 8, and 24 hr respectively following oral administration from both the rats (Group 1 and 2). At each time point, blood sample (125 μL) was collected in EDTA tubes and tubes were immediately centrifuged at 3000 rpm for 10 min to obtain the plasma. The separated plasma was frozen at −20° C. before analysis.
The biological samples were thawed at room temperature. After vortexing for 30 seconds, 100 μL of sample was taken into 1.5 mL eppendorf tubes, 600 μL of ice-cold acetonitrile was added to denature the proteins. The tubes were vortexed for 2 minutes followed by centrifugation at 5000 rpm for 10 minutes. […]

CC(=O)O[C@H]1C(=O)[C@@]2(C)[C@H]([C@H](OC(=O)c3ccccc3)[C@]3(O)C[C@H](OC(=O)[C@H](O)[C@@H](NC(=O)c4ccccc4)c4ccccc4)C(C)=C1C3(C)C)[C@]1(OC(C)=O)CO[C@@H]1C[C@@H]2O [Paclitaxel]
plasma concentrations (below quantitation limits): < 31.2 ng/mL
